From patent publication US6525022B1, “Receptor specific atrial natriuretic peptides” (Genentech, Inc., priority 1993, dated 2003)
Like-named read-outs stand apart in the source and are kept apart here. Where a SMILES comes first, the peptide text is derived from it. Bridges are numbered along the chain shown (N, C = ends).

Columns and labels:
[1] = target: T1, human natriuretic peptide receptor-A expressed in 293 cells (Homo sapiens, UniProt P16066); experiment: cGMP production in 293 cells expressing hNPR-A; type: cell-based
T1 construct: expressed in transfected cells
T1 sequence (P16066 33-1061): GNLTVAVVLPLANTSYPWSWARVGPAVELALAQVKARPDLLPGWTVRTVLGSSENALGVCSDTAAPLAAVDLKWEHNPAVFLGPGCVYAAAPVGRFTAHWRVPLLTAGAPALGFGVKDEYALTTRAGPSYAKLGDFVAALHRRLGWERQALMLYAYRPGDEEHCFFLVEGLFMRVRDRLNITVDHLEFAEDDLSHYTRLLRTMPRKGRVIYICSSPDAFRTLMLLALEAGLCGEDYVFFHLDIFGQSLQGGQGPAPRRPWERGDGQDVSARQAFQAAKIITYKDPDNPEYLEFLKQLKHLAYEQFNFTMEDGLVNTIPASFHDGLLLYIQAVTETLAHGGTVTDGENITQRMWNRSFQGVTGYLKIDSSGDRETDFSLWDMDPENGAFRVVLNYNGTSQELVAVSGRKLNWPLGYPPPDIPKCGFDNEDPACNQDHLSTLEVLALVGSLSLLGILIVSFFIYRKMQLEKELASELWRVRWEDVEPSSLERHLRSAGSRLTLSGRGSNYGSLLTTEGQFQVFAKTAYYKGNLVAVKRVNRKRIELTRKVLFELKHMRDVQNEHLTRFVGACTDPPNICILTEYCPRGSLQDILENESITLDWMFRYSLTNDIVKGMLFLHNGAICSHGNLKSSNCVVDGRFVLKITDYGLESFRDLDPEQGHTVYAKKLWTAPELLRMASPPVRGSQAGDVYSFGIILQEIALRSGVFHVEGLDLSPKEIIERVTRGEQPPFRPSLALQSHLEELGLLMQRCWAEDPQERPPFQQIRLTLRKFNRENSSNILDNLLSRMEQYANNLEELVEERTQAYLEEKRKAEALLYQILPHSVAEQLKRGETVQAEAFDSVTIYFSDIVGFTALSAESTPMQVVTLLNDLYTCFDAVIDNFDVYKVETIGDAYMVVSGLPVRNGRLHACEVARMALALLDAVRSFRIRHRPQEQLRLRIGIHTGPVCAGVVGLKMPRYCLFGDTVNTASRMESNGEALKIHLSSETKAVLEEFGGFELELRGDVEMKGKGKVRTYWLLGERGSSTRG
Procedure: Stable 293 cell lines were maintained in glycine free F-12/Dulbecco's minimal essential medium (50/50, v/v) with 10% dialyzed fetal calf serum, 10 mM Hepes, […] of G418 (Geneticin, GIBCO/BRL), pH 7.2, in a humidified incubator at 37° C. with 7% CO2, 93% air. Cells were passaged using 136.8 mM NaCL, 2.6 mM KCl, 7.9 mM Na2HPO4, 1.4 mM KH2PO4, pH 7.2 (PBS) with 0.5 mM EDTA. For concentration-response experiments log phase cultures of 293 cell lines were passaged to 12 well plates at a density of 2.5×10^5 cells/well. After 48 hours cultures were approximately 50% confluent, and were used for stimulation of cGMP production. Peptide treatments were carried out essentially as described by Lowe and Fendly (1992). Briefly, dried peptide aliquots were resuspended in 0.1% (v/v) acetic acid to a stock concentration of 50 μM, and diluted to 1 μM in F-12/Dulbecco's minimal essential medium (50/50, v/v) with 25 mM Hepes, 0.1% (w/v) bovine serum albumin, 0.1 mM isobutylmethylxanthine at pH 7.2 (stimulation medium). Five-fold serial dilutions were prepared in stimulation medium using polypropylene tubes, then prewarmed to 37° C. before use. Cell culture medium was aspirated prior to adding 0.5 ml of stimulation medium plus peptides to monolayer cultures for 10 minutes at 37° C. Reactions were stopped by addition of 0.5 ml of ice cold 12% trichloroacetic acid to give a final volume of 1 ml. Culture plates were frozen on dry ice and stored at −20° C. prior to assay. For cGMP measurements samples were thawed at room temperature, and processed as described by Koller et al., Science 252:120-123 (1991), for cGMP radioimmunoassay (Biomedical Technologies, Inc). All stimulations were performed in triplicate, and samples were measured in duplicate for cGMP by radioimmumoassay. Predicted peptide concentrations were corrected based on quantitative amino acid analysis of duplicate samples from the same set of peptide aliquots used for the stimulation experiments.
Data analysis. The competition binding curves and cGMP production dose responses were analyzed by the four-parameter logistic equation with the KaleidaGraph™ program (Synergy Software, PA) to obtain estimates of the IC50 or EC50 values. The non linear least-squares curve fitting program SCATPLOT was used to analyze the competition binding curves according to a one-site or two-site binding model for competitor. A two-site binding model is reported when the fit to the data was statistically better (p<0.05) than a one-site fit.

[2] = target: human NEP (hNEP), endopeptidase 24.11 (Homo sapiens, UniProt P08473); experiment: Degradation of ANF variants by human NEP, half-life by HPLC
Procedure: The half-life of various ANF variants was measured according to the following procedure.
ANF Solution: An accurately weighed amount of ANF or variant thereof was diluted with HEPES buffer (5 ml of 1 M HEPES Buffer and 0.1 ml of Tween 20 diluted to a 100 ml volume with DI water) to make a 0.5 mg/ml solution.
hNEP/HEPES Solution: 7.5 μl of a 1 mg/ml solution of hNEP (see U.S. Pat. No. 4,960,700) is dissolved in 992.5 μl of HEPES buffer (as described above) and vortex mixed. The resulting mixture is stored in a silylated Eppendorf tube and periodically checked for activity against an ANF peptide standard.
Assay conditions: 150 μl of an ANF solution in the HEPES buffer is diluted with 820 μl HEPES buffer and vortex mixed (1 sec). Careful note of the time is taken as 30 μl of the hNEP/HEPES solution is added and the solution is vortex mixed for 1 sec. and analyzed by periodic removal of constant volume aliquots by the HPLC autosampler. A 2.5 cm×50 cm, C-18 reversed-phase column (15 micron, 300 Å]) was used and elution was achieved by using a shallow gradient of increasing acetonitrile. The elution conditions consisted of a 10% to 50% acetonitrile (containing 0.1% TFA) gradient at 0.5% min.^−1. The aqueous phase was 0.1% TFA in water. The peak area of the ANP peptide is recorded at these periodic intervals and a half-life is determined from these values.

[3] = isolated human NEP (endopeptidase 24.11) in HEPES buffer, Half-Life (min.), FIG. 7: ANF variants 32 nM/ml, NEP 0.45 μg/ml

Sequence of human NEP (hNEP), endopeptidase 24.11 (P08473 whole entry): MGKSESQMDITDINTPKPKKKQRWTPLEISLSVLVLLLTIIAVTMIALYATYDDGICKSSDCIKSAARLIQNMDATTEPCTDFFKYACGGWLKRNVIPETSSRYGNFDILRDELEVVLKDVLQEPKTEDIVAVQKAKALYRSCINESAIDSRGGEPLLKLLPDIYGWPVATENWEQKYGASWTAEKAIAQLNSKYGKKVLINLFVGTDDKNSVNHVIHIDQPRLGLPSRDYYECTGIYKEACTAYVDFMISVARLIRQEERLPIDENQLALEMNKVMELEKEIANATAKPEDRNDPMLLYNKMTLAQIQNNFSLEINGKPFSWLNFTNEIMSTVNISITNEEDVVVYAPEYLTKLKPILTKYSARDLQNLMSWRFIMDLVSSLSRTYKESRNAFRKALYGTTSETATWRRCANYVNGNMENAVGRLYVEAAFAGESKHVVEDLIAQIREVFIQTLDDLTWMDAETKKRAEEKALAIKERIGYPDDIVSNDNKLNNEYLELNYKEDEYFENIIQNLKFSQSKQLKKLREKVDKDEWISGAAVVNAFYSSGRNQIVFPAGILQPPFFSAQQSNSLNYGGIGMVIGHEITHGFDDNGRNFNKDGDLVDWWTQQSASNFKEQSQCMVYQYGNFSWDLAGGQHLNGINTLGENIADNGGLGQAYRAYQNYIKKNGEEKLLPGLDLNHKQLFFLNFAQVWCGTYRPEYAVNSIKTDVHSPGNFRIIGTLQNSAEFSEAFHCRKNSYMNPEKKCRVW

Row | SMILES | Potency in cGMP production compared with rat ANP [1] | Stimulation of cGMP production (agonist efficacy) [1] | half-life at 32 nM/ml [2, 3] [h] | half-life at 32 nM/ml [2] [h]
1 | CC[C@H](C)[C@@H]1NC(=O)[C@H](CCCNC(=N)N)NC(=O)[C@H](CC(=O)O)NC(=O)[C@H]([C@@H](C)CC)NC(=O)[C@H](CO)NC(=O)CNC(=O)[C@H]([C@@H](C)O)NC(=O)[C@H](Cc2ccccc2)NC(=O)[C@@H](NC(=O)[C@H](CO)NC(=O)[C@H](CO)NC(=O)[C@H](CCCNC(=N)N)NC(=O)[C@H](CCCNC(=N)N)NC(=O)[C@H](CC(C)C)NC(=O)[C@@H](N)CO)CSSC[C@@H](C(=O)N[C@@H](CC(N)=O)C(=O)N[C@@H](CO)C(=O)N[C@@H](Cc2ccccc2)C(=O)N[C@@H](CCCNC(=N)N)C(=O)N[C@@H](Cc2ccc(O)cc2)C(=O)O)NC(=O)CNC(=O)[C@H](CC(C)C)NC(=O)CNC(=O)[C@H](CO)NC(=O)[C@H](CCC(N)=O)NC(=O)[C@H](C)NC(=O)[C@H](CCCNC(=N)N)NC1=O [ANF 27] | potency very similar to rat ANP | full agonists | 5.57 | –
2 | CC[C@H](C)[C@@H]1NC(=O)[C@H](CCCNC(=N)N)NC(=O)[C@H](CC(=O)O)NC(=O)[C@H]([C@@H](C)CC)NC(=O)[C@H](CO)NC(=O)CNC(=O)[C@H]([C@@H](C)O)NC(=O)[C@H](Cc2ccccc2)NC(=O)[C@@H](NC(=O)[C@H](CO)NC(=O)[C@H](CO)NC(=O)[C@H](CCCNC(=N)N)NC(=O)[C@H](CCCNC(=N)N)NC(=O)[C@H](CC(C)C)NC(=O)[C@H](CO)NC(=O)[C@H](CCCNC(=N)N)NC(=O)[C@@H]2CCCN2C(=O)[C@H](C)NC(=O)[C@@H](N)[C@@H](C)O)CSSC[C@@H](C(=O)N[C@@H](CC(N)=O)C(=O)N[C@@H](CO)C(=O)N[C@@H](Cc2ccccc2)C(=O)N[C@@H](CCCNC(=N)N)C(=O)N[C@@H](Cc2ccc(O)cc2)C(=O)O)NC(=O)CNC(=O)[C@H](CC(C)C)NC(=O)CNC(=O)[C@H](CO)NC(=O)[C@H](CCC(N)=O)NC(=O)[C@H](C)NC(=O)[C@H](CCCNC(=N)N)NC1=O [ANF 76] (H-TAPRSLRRSSCFTGSIDRIRAQSGLGCNSFRY-OH; disulfide 11-27; C-terminus assumed) | potency very similar to rat ANP | full agonists | – | 23.5
3 | CC[C@H](C)[C@@H]1NC(=O)[C@H](CCCNC(=N)N)NC(=O)[C@H](CC(=O)O)NC(=O)[C@H]([C@@H](C)CC)NC(=O)[C@H](CO)NC(=O)CNC(=O)[C@H]([C@@H](C)O)NC(=O)[C@H](Cc2ccccc2)NC[C@@H](NC(=O)[C@H](CO)NC(=O)[C@H](CO)NC(=O)[C@H](CCCNC(=N)N)NC(=O)[C@H](CCCNC(=N)N)NC(=O)[C@H](CC(C)C)NC(=O)[C@@H](N)CO)CSSC[C@@H](C(=O)N[C@@H](CC(N)=O)C(=O)N[C@@H](CO)C(=O)N[C@@H](Cc2ccccc2)C(=O)N[C@@H](CCCNC(=N)N)C(=O)N[C@@H](Cc2ccc(O)cc2)C(=O)O)NC(=O)CNC(=O)[C@H](CC(C)C)NC(=O)CNC(=O)[C@H](CO)NC(=O)[C@H](CCC(N)=O)NC(=O)[C@H](C)NC(=O)[C@H](CCCNC(=N)N)NC1=O [ANF 84] | potency very similar to rat ANP | full agonists | 39.9 | –
